Experimental data: the CATMoS acute toxicity set (Mansouri et al. 2021)

Test: GHS categories as the set defines them, by LD50: 1 up to 5, 2 up to 50, 3 up to 300, 4 up to 2000, 5 above 2000 mg/kg
Conditions: rat; in vivo; po
For Nc1nc2c(s1)CC(N)CC2 (stereo not drawn), the GHS category was 4.
CC(=O)[C@H]1CC[C@H]2[C@@H]3C=CC4=CC(=O)CC[C@@]4(C)[C@@H]3CC[C@]12C showed a GHS category of 5.
Molecule Cc1ccc2c([nH]c(=O)c3c(=O)cc(C(=O)OCCC(C)C)oc32)c1C has a GHS category of 5.
CC(=O)Nc1ccc2cc(S(=O)(=O)O)c(N=Nc3ccc(S(=O)(=O)CCOS(=O)(=O)O)cc3)c(O)c2c1 gave a GHS category of 5.
In the case of CCCCCCCCCCCCCCCCCCOP(=O)(O)O, the GHS category is reported as 5.
Work on CC(=O)Nc1ccc(Cc2ccccn2)c([N+](=O)[O-])c1 yielded a GHS category of 3.
In the case of CCCCOc1ccc(-c2ccc(C#N)cc2)cc1, the GHS category is reported as 5.
In the case of CCCCCCCCCCCCCCCCCCOCCC[N+](C)(C)C, the GHS category is reported as 4.
Molecule CCCCCCCCCCCCOC(=O)C=CC(=O)OCCCCCCCCCCCC has a GHS category of 5.
With C=CCCCCCCCCC=O the GHS category was 5.
With C=C(C)C(=O)OCCOCCOCCOCC the GHS category was 5.
CCCCCCCCCC[C@H]1O[C@H]1CCCCC(C)C gave a GHS category of 5.
Cc1c(S(C)(=O)=O)ccc(C(=O)O)c1Cl showed a GHS category of 5.
With CCCNC(=O)Cc1cnc2cccc(C)n2c1=O the GHS category was 3.
For CCOc1ccc(C2(C(=O)OC(C#N)c3cccc(Oc4ccccc4)c3)CC2(Cl)Cl)cc1 (stereo not drawn), the GHS category was 5.
CC(C)C(O)C(C)(C)CO (stereo not drawn) gave a GHS category of 5.
In the case of Cc1cccc2ncc(C(=O)NC3CCCC3)c(=O)n12, the GHS category is reported as 3.
For O=C1C=CC(=O)N1c1ccc(SSc2ccc(N3C(=O)C=CC3=O)cc2)cc1, the GHS category was 5.
B12B3B4B1C234 showed a GHS category of 5.
Molecule COc1ccc(C(=O)CC(=O)c2ccc(C(C)(C)C)cc2)cc1 has a GHS category of 5.
N[C@@H](Cc1cnc[nH]1)C(=O)O showed a GHS category of 5.
Work on CCN(CC)CCC(C#N)(CC=C(C)C)c1cccc2ccccc12 (stereo not drawn) yielded a GHS category of 4.
CCn1nnnc1CSCCC(N)=O showed a GHS category of 4.
For Cc1cc(C2CC2)nc(Nc2ccccc2)n1, the GHS category was 5.
CCOC(=O)c1cnn(-c2cccc(C)c2)c1S(C)(=O)=O gave a GHS category of 4.
CCOC(=O)CSc1nc(C(C)(C)C)nn1C(=O)N(C)C showed a GHS category of 3.
For Cc1cc(C(=O)Nc2cccc(C(F)(F)F)c2)n[nH]1, the GHS category was 5.
In the case of COc1ccc(C(=O)OC2=C(C(=O)Nc3ccccn3)N(C)S(=O)(=O)c3ccsc32)cc1, the GHS category is reported as 2.
Work on Cc1cc(C)[n+]([N-]C(=O)c2ccc(Cl)c(S(N)(=O)=O)c2)c(C)c1 yielded a GHS category of 5.
COP(=S)(OC)Oc1ccc(Cl)cc1C#N gave a GHS category of 4.
In the case of CON=C(C(=O)OC)c1ccccc1CON=C(C)c1cccc(C(F)(F)F)c1, the GHS category is reported as 5.
In the case of CNC(=O)C(=NNc1ccc(OC)cc1[N+](=O)[O-])C(C)=O, the GHS category is reported as 5.
O=C1CCCCCCCCCCCCCCCO1 showed a GHS category of 5.
Cc1cccc2ncc(C(=O)NC(C)(C)C)c(=O)n12 showed a GHS category of 3.
In the case of Cn1nnnc1SCCCC(=O)NC1CCCCC1, the GHS category is reported as 4.
COC(=O)c1c(C)nc(C)c(C(=O)O)c1-c1cc([N+](=O)[O-])ccc1F gave a GHS category of 5.
O=S(=O)(O)c1ccc2c(c1)-c1nc-2nc2[nH]c(nc3nc(nc4[nH]c(n1)c1ccc(S(=O)(=O)O)cc41)-c1ccc(S(=O)(=O)O)cc1-3)c1ccc(S(=O)(=O)Nc3ccc(S(=O)(=O)CCO)cc3)cc21 gave a GHS category of 5.
Work on COc1c(O)cc2c(c1O)C1OC(CO)C(O)C(O)C1OC2=O (stereo not drawn) yielded a GHS category of 5.
O=C(O)CCC(CC(=O)O)(C(=O)O)P(=O)(O)O (stereo not drawn) gave a GHS category of 5.
For c1ccc(C2CCCCC2)cc1, the GHS category was 5.
CN(C)CCCOc1nn(-c2cccc(C(F)(F)F)c2)c2ncccc12 gave a GHS category of 4.
CCC(=O)C(C)CO (stereo not drawn) showed a GHS category of 5.
CC(C)N1C2CCC1CC(OC(=O)C(CO)c1ccccc1)C2 (stereo not drawn) showed a GHS category of 4.
Cc1nc(N)sc1C(=O)N(C(C)C)C(C)C showed a GHS category of 4.
In the case of O=[N+]([O-])c1c(Cl)cccc1-c1c[nH]cc1Cl, the GHS category is reported as 5.
CC/C=C\CCOC(=O)Cc1ccccc1 gave a GHS category of 5.
For CCCCNC(=O)c1cnc2cccc(C)n2c1=O, the GHS category was 3.
Work on COc1ccc(N=NC(C(C)=O)C(=O)Nc2ccccc2OC)c([N+](=O)[O-])c1 (stereo not drawn) yielded a GHS category of 5.
